“And” between values parts separate entries of the source, which are not always exact repeats. Equal entries are not always repeated.
Assays:
Test in all cases: G assay PDZ-PL binding
Conditions in all cases: peptide 10 uM, protein 5
AIPC domain 1 = target: T1, AIPC domain 1 (Homo sapiens, UniProt O15018)
T1 construct: made in house; host or cells: E. coli (DH5alpha, BL21 or JM109), vector pGEX-3X
Summary of the method: (§1)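 Specific PDZ–peptide binding is taken as replicate mean signal exceeding GST-only background by standard-error criteria. Biotinylated PL peptides (20 uM; 10 uM under G′ conditions) bind to plate-captured GST/PDZ fusion protein and are detected with streptavidin-HRP at 450 nm.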

CASK domain 1 = target: T2, CASK domain 1 (Homo sapiens, UniProt O14936)
T2 construct: made in house; host or cells: E. coli (DH5alpha or BL-21)
Summary of the method: as §1

DLG2 domain 1 = target: T3, DLG2 domain 1 (Homo sapiens, UniProt Q15700)
T3 construct: made in house; host or cells: E. coli (DH5alpha, BL21 or JM109), vector pGEX-3X
Summary of the method: as §1

Densin domain 1 = target: T4, Densin domain 1 (Homo sapiens, UniProt Q96NW7)
T4 construct: made in house; host or cells: E. coli (DH5alpha or BL-21)
Summary of the method: as §1

ELFIN 1 domain 1 = target: T5, ELFIN 1 domain 1 (Homo sapiens, UniProt O00151, G21R)
T5 construct: made in house; host or cells: E. coli (DH5alpha, BL21 or JM109), vector pGEX-3X
Summary of the method: as §1

HTRA 3 domain 1 = target: T6, HTRA 3 domain 1 (Homo sapiens, UniProt P83110)
T6 construct: made in house; host or cells: E. coli (DH5alpha or BL-21)
Summary of the method: as §1

KIAA1095 domain 1 = target: T7, KIAA1095 domain 1 (Homo sapiens, UniProt Q9UPQ7)
T7 construct: made in house; host or cells: E. coli (DH5alpha, BL21 or JM109)
Summary of the method: as §1

KIAA1526 #126.1 domain 2 = target: T8, KIAA1526 #126.1 domain 2 (Homo sapiens, UniProt Q9P202, G331W)
T8 construct: made in house; host or cells: E. coli (DH5alpha, BL21 or JM109)
Summary of the method: as §1

KIAA1634 domain 5 = target: T9, KIAA1634 domain 5 (Homo sapiens, UniProt Q5TCQ9)
T9 construct: made in house; host or cells: E. coli (DH5alpha or BL-21)
Summary of the method: as §1

LIM-RIL domain 1 = target: T10, LIM-RIL domain 1 (Homo sapiens, UniProt P50479, A39S/DEL20-20)
T10 construct: made in house; host or cells: E. coli (DH5alpha or BL-21)
Summary of the method: as §1

SSTRIP domain 1 = target: T11, SSTRIP domain 1 (Homo sapiens, UniProt Q9Y566)
T11 construct: made in house; host or cells: E. coli (DH5alpha, BL21 or JM109)
Summary of the method: as §1

[1] = target: T12, Syntrophin gamma 2 domain 1 (Homo sapiens, UniProt Q9NY99)
T12 construct: made in house; host or cells: E. coli (DH5alpha, BL21 or JM109), vector pGEX-3X
Summary of the method: as §1

ZO-1 domain 1 = target: T13, ZO-1 domain 1 (Homo sapiens, UniProt Q07157)
T13 construct: made in house; host or cells: E. coli (DH5alpha, BL21 or JM109)
Summary of the method: as §1

T4 sequence (Q96NW7 1429-1537): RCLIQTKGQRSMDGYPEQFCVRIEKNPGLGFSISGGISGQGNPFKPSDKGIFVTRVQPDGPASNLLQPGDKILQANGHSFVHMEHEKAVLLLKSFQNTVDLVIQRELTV
T7 sequence (Q9UPQ7 with tags, fused parts or gaps): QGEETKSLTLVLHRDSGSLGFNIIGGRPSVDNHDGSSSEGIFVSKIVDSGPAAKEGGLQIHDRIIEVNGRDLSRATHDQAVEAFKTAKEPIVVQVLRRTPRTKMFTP
T12 sequence (Q9NY99 65-163): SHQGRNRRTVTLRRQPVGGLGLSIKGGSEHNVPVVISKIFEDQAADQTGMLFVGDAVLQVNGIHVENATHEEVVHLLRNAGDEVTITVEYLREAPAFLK
T13 sequence (Q07157 with tags, fused parts or gaps): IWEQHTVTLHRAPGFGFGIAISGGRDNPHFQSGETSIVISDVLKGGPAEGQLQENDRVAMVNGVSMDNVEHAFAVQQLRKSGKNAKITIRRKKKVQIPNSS
T1 sequence (O15018 with tags, fused parts or gaps): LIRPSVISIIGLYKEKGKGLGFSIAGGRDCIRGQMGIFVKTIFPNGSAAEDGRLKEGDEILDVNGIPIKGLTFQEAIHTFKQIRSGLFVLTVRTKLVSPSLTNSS
T2 sequence (O14936 486-575): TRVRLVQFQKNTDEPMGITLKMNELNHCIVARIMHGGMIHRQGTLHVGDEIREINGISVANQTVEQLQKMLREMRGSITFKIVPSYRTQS
T6 sequence (P83110 with tags, fused parts or gaps): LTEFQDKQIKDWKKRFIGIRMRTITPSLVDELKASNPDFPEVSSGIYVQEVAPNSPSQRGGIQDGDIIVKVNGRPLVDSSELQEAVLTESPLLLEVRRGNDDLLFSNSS
T8 sequence (Q9P202 272-371 G331W): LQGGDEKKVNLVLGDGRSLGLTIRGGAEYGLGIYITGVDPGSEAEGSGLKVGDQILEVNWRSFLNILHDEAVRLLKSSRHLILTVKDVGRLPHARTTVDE
T9 sequence (Q5TCQ9 1040-1137 isoform Q5TCQ9-2): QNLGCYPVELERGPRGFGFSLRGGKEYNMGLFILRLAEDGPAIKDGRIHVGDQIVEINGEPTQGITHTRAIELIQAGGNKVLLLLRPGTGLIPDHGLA
T5 sequence (O00151 2-93 G21R): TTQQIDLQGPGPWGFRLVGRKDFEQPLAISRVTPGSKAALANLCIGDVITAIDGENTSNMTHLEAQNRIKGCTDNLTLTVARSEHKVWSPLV
T11 sequence (Q9Y566 with tags, fused parts or gaps): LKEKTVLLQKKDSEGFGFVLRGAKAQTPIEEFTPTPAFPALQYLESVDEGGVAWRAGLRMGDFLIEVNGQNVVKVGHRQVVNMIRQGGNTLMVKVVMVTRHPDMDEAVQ
T10 sequence (P50479 with tags, fused parts or gaps DEL20-20/A39S): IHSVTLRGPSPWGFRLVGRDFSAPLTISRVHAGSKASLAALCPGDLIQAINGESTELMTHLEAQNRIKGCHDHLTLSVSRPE

Substance: 20 mer peptide corresponding to the C-terminus of HPV16 E6 (PDZ ligand), biotinylated in binding assays; ends SSRTRRETQL (SEQ ID NO: 13) [HPV E6 #16]
- Ave OD (AIPC domain 1; A450 nm): 0.5595
- OD S/N (AIPC domain 1; vs GST only well): 2.30
- Ave OD (CASK domain 1; A450 nm): 0.36
- OD S/N (CASK domain 1; vs GST only well): 1.15
- Ave OD (DLG2 domain 1; A450 nm): 0.793
- OD S/N (DLG2 domain 1; vs GST only well): 3.59
- Ave OD (Densin domain 1; A450 nm): 0.4205 and 0.3505
- OD S/N (Densin domain 1; vs GST only well): 1.96 and 1.82
- Ave OD (ELFIN 1 domain 1; A450 nm): 0.66
- OD S/N (ELFIN 1 domain 1; vs GST only well): 3.39
- Ave OD (HTRA 3 domain 1; A450 nm): 0.4135
- OD S/N (HTRA 3 domain 1; vs GST only well): 1.34
- Ave OD (KIAA1095 domain 1; A450 nm): 2.7045 and 1.711
- OD S/N (KIAA1095 domain 1; vs GST only well): 13.13 and 7.96
- Ave OD (KIAA1526 #126.1 domain 2; A450 nm): 0.4625
- OD S/N (KIAA1526 #126.1 domain 2; vs GST only well): 1.87
- Ave OD (KIAA1634 domain 5; A450 nm): 0.4025
- OD S/N (KIAA1634 domain 5; vs GST only well): 2.07
- Ave OD (LIM-RIL domain 1; A450 nm): 0.449
- OD S/N (LIM-RIL domain 1; vs GST only well): 1.60
- Ave OD (SSTRIP domain 1; A450 nm): 0.467
- OD S/N (SSTRIP domain 1; vs GST only well): 3.28
- Ave OD ([1]; A450 nm): 0.469 and 0.7725
- OD S/N ([1]; vs GST only well): 2.76 and 3.13
- Ave OD (ZO-1 domain 1; A450 nm): 0.4125 and 0.5215
- OD S/N (ZO-1 domain 1; vs GST only well): 1.83 and 2.83
